Data: patent US8785463B2, “GPR 119 agonists” (Cadila Healthcare Limited, priority 2010, dated 2014)

Target: T1, human GPR 119 receptor (Homo sapiens, UniProt Q8TDV5)
T1 construct: expressed in transfected cells
T1 sequence (Q8TDV5 1-335): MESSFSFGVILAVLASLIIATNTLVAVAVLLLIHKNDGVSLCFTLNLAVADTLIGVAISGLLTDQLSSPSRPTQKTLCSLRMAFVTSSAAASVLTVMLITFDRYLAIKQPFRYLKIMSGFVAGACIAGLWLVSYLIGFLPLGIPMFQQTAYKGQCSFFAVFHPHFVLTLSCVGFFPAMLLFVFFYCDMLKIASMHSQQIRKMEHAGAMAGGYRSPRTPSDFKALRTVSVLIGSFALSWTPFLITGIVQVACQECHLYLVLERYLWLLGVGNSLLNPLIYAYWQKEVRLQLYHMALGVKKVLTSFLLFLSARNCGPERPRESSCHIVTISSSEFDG
Assay: cAMP assay in stable cell line expressing recombinant human GPR 119 receptor
Type: cell-based
Conditions: DMSO = 1
Source text: A stable cell line expressing recombinant human GPR 119 receptor was established and used to investigate the efficacy of the compounds of the invention based on the intracellular levels of cyclic AMP (cAMP) using commercially available cAMP kits.

| Fold increase in cyclic AMP with respective to DMSO (10 nM compound) | Fold increase in cyclic AMP with respective to DMSO (100 nM compound) | Fold increase in cyclic AMP with respective to DMSO (1 uM compound) | SMILES |
| --- | --- | --- | --- |
| 0.73 fold | 1.09 fold | 2.22 fold | CC(C)COC(=O)N1CCC(Oc2cc(Oc3ccc(/C=C4\SC(=O)NC4=O)cc3)ncn2)CC1 [Example 34, (Z)-Isobutyl 4-((6-(4-((2,4-dioxothiazolidin-5-ylidene)methyl)phenoxy)pyrimidin-4-yl)oxy)piperidine-1-carboxylate] |
| 1.31 fold | 1.92 fold | 4.24 fold | CC(C)(C)OC(=O)N1CCC(Oc2cc(Oc3cccc(/C=C4\SC(=O)NC4=O)c3)ncn2)CC1 [Example 19, (Z)-tert-Butyl 4-((6-(3-((2,4-dioxothiazolidin-5-ylidene)methyl)phenoxy)pyrimidin-4-yl)oxy)piperidine-1-carboxylate] |
| 0.87 fold | 1.21 fold | 1.66 fold | COc1cc(/C=C2\SC(=O)NC2=O)ccc1Oc1cc(OC2CCN(C(=O)OC(C)(C)C)CC2)ncn1 [Example 40, (Z)-tert-Butyl 4-((6-(4-((2,4-dioxothiazolidin-5-ylidene)methyl)-2-methoxyphenoxy)pyrimidin-4-yl)oxy)piperidine-1-carboxylate] |
| 0.79 fold | 1.25 fold | 2.81 fold | CCOC(=O)N1CCC(Oc2cc(Oc3cccc(/C=C4\SC(=O)NC4=O)c3)ncn2)CC1 [Example 51, (Z)-Ethyl 4-((6-(3-((2,4-dioxothiazolidin-5-ylidene)methyl)phenoxy)pyrimidin-4-yl)oxy)piperidine-1-carboxylate] |
| 0.80 fold | 1.38 fold | 2.19 fold | COC(=O)N1CCC(Oc2cc(Oc3cccc(/C=C4\SC(=O)NC4=O)c3)ncn2)CC1 [Example 36, (Z)-Methyl 4-((6-(3-((2,4-dioxothiazolidin-5-ylidene)methyl)phenoxy)pyrimidin-4-yl)oxy)piperidine-1-carboxylate] |
| 0.83 fold | 1.36 fold | 2.72 fold | CC(C)COC(=O)N1CCC(Oc2cc(Oc3cccc(/C=C4\SC(=O)NC4=O)c3)ncn2)CC1 [Example 33, (Z)-Isobutyl 4-((6-(3-((2,4-dioxothiazolidin-5-ylidene)methyl)phenoxy)pyrimidin-4-yl)oxy)piperidine-1-carboxylate] |

Further lines, the molecule ahead of its results:

| SMILES | Fold increase in cyclic AMP with respective to DMSO (10 nM compound) | Fold increase in cyclic AMP with respective to DMSO (100 nM compound) | Fold increase in cyclic AMP with respective to DMSO (1 uM compound) |
| --- | --- | --- | --- |
| Cc1c(Oc2ccc(/C=C3\SC(=O)NC3=O)cc2)ncnc1OC1CCN(Cc2ccccc2)CC1 [Example 38, (Z)-5-(4-((6-((1-Benzylpiperidin-4-yl)oxy)-5-methylpyrimidin-4-yl)oxy)benzylidene)thiazolidine-2,4-dione] | 0.34 fold | 0.67 fold | 1.64 fold |
| CCOC(=O)CN1C(=O)S/C(=C\c2cccc(Oc3ncnc(OC4CCN(C(=O)OC(C)(C)C)CC4)c3C)c2)C1=O [Example 45, (Z)-tert-Butyl 4-((6-(3-((3-(2-ethoxy-2-oxoethyl)-2,4-dioxothiazolidin-5-ylidene)methyl)phenoxy)-5-methylpyrimidin-4-yl)oxy)piperidine-1-carboxylate] | 1.05 fold | 1.33 fold | 2.88 fold |
| Cc1c(Oc2ccc(/C=C3\SC(=O)NC3=O)cc2)ncnc1OC1CCN(C(=O)OCC(C)C)CC1 [Example 15, (Z)-iso-Butyl 4-((6-(4-((2,4-dioxothiazolidin-5-ylidene)methyl)phenoxy)-5-methylpyrimidin-4-yl)oxy)piperidine-1-carboxylate] | 1.72 fold | 2.19 fold | 3.28 fold |
| Cc1c(Oc2cccc(/C=C3\SC(=O)NC3=O)c2)ncnc1OC1CCN(C(=O)OCc2ccccc2)CC1 [Example 50, (Z)-Benzyl 4-((6-(3-((2,4-dioxothiazolidin-5-ylidene)methyl)phenoxy)-5-methylpyrimidin-4-yl)oxy)piperidine-1-carboxylate] | 1.73 fold | 4.66 fold | 5.74 fold |
| O=C1NC(=O)/C(=C/c2cccc(Oc3cc(OC4CCN(C(=O)OCc5ccccc5)CC4)ncn3)c2)S1 [Example 29, (Z)-Benzyl 4-((6-(3-((2,4-dioxothiazolidin-5-ylidene)methy 1)phenoxy)pyrimidin-4-yl)oxy)piperidine-1-carboxylate] | 2.09 fold | 3.66 fold | 8.17 fold |
| O=C1NC(=O)/C(=C/c2ccc(Oc3cc(OC4CCN(c5ncccn5)CC4)ncn3)cc2)S1 [Example 43, (Z)-5-(4-((6-((1-(Pyrimidin-2-yl)piperidin-4-yl)oxy)pyrimidin-4-yl)oxy)benzylidene)thiazolidine-2,4-dione] | 0.94 fold | 1.27 fold | 1.98 fold |
| O=C1NC(=O)/C(=C/c2ccc(Oc3cc(OC4CCN(C(=O)OCc5ccccc5)CC4)ncn3)cc2)S1 [Example 30, (Z)-Benzyl 4-((6-(4-((2,4-dioxothiazolidin-5-ylidene)methyl)phenoxy)pyrimidin-4-yl)oxy)piperidine-1-carboxylate] | 2.29 fold | 3.59 fold | 7.4 fold |
| CCc1cnc(N2CCC(Oc3cc(Oc4cccc(/C=C5\SC(=O)NC5=O)c4)ncn3)CC2)nc1 [Example 55] | 1.18 fold | 2.86 fold | 4.77 fold |
| Cc1c(OCC2CCCN2C(=O)OC(C)(C)C)ncnc1Oc1cccc(/C=C2\SC(=O)NC2=O)c1 (stereo not drawn) [Example 23, (Z)-tert-Butyl 2-(((6-(3-((2,4-dioxothiazolidin-5-ylidene)methyl)phenoxy)-5-methylpyrimidin-4-yl)oxy)methyl)pyrrolidine-1-carboxylate] | 0.90 fold | 1.29 fold | 1.11 fold |
| O=C1NC(=O)/C(=C/c2cccc(Oc3cc(OC4CCN(Cc5ccccc5)CC4)ncn3)c2)S1 [Example 39, (Z)-5-(3-((6-((1-Benzylpiperidin-4-yl)oxy)pyrimidin-4-yl)oxy)benzylidene)thiazolidine-2,4-dione] | 0.85 fold | 1.38 fold | 2.20 fold |
| CCc1cnc(N2CCC(Oc3cc(Oc4ccc(/C=C5\SC(=O)NC5=O)cc4)ncn3)CC2)nc1 [Example 41, (Z)-5-(4-((6-((1-(5-Ethylpyrimidin-2-yl)piperidin-4-yl)oxy)pyrimidin-4-yl)oxy)benzylidene)thiazolidine-2,4-dione] | 1.00 fold | 1.58 fold | 3.53 fold |
| Cc1c(Oc2ccc(/C=C3\SC(=O)NC3=O)cc2)ncnc1OC1CCN(C(=O)OC(C)C)CC1 [Example 16, (Z)-iso-Propyl 4-((6-(4-((2,4-dioxothiazolidin-5-ylidene)methyl)phenoxy)-5-methylpyrimidin-4-yl)oxy)piperidine-1-carboxylate] | 1.91 fold | 2.54 fold | 3.17 fold |
| O=C1NC(=O)/C(=C/c2ccc(Oc3cc(OC4CCN(Cc5ccccc5)CC4)ncn3)cc2)S1 [Example 37, (Z)-5-(4-((6-((1-Benzylpiperidin-4-yl)oxy)pyrimidin-4-yl)oxy)benzylidene)thiazolidine-2,4-dione] | 0.97 fold | 1.47 fold | 2.07 fold |
| CCc1cnc(N2CCC(Oc3ncnc(Oc4cccc(/C=C5\SC(=O)NC5=O)c4)c3C)CC2)nc1 [Example 26, (Z)-5-(3-((6-((1-(5-Ethylpyrimidin-2-yl)piperidin-4-yl)oxy)-5-methylpyrimidin-4-yl)oxy)benzylidene)thiazolidine-2,4-dione] | 4.02 fold | 7.17 fold | 9.34 fold |
| Cc1c(Oc2cccc(/C=C3\SC(=O)NC3=O)c2)ncnc1OC1CCN(c2ncccn2)CC1 [Example 28, (Z)-5-(3-((5-Methyl-6-((1-(pyrimidin-2-yl)piperidin-4-yl)oxy)pyrimidin-4-yl)oxy)benzylidene)thiazolidine-2,4-dione] | 1.32 fold | 2.86 fold | 4.56 fold |
